Data published in article PMC13095444, “Discovery of RGS2-FBXO44 interaction inhibitors using a cell-based NanoBit assay” (Molecular Pharmacology, 2025).

How the values were obtained:
RGS2 protein levels = assay: PathHunter ProLabel assay of RGS2 protein levels in HEK-293T-RGS2-PL cells; assay type: cell-based, Human; conditions: for RGS2 protein levels (PathHunter ProLabel): 100 μM compound overnight (16–18 hours)
Protocol: The PathHunter ProLabel assay was run as described previously ([Sjögren et al, 2012]; [Raveh et al, 2014]; [Sjögren et al, 2015]). Briefly, HEK-293T-RGS2-PL cells were plated at 10,000 cells per well in a white, tissue culture-treated 384-well plate (Perkin Elmer) in DMEM without phenol red (#21063; Gibco) and 0.1% BSA. The cells were allowed to attach for 4 hours, followed by treatment with DMSO, 10 μM MG-132, or 100 μM of compounds. Prior to the detection of RGS2 protein levels by the ProLabel assay, a fluorescent viability assay was performed in the same well, as described above. PathHunter ProLabel reagents (DiscoveRx) were prepared according to the manufacturer’s directions and added to the plate, followed by incubation at room temperature for 1 hour. Luminescence corresponding to RGS2-PL protein levels was detected using a Synergy Neo2 multimode plate reader.
Compounds that inhibit the interaction between RGS2 and FBXO44 would protect RGS2 from proteasomal degradation and result in increased RGS2 protein levels. We therefore next assayed our 20 hits for their ability to increase RGS2 protein levels. We first performed western blot analysis of HEK-293T cells transfected with RGS2-HA and FLAG-FBXO44 and treated overnight (16–18 hours) with 100 μM compound, using proteasome inhibitor MG-132 as a positive control (10 μM). […] Although somewhat disappointing, given the limited sensitivity of western blot, we opted to also test the compounds using an alternate assay paradigm. Specifically, we used the PathHunter ProLabel assay (DiscoveRx), an enzyme complementation assay in which a protein of interest is tagged with a 4 kDa part of β-galactosidase (ProLabel; PL). The chemiluminescent signal in the assay correlates with relative levels of the PL-tagged target protein. We previously developed a stable HEK-293T-RGS2-PL cell line that was used in several high-throughput screening campaigns ([Sjögren et al, 2012]; [Raveh et al, 2014]; [Sjögren et al, 2015]). The PathHunter ProLabel assay offers a more quantitative measurement of protein levels, with a larger dynamic range than a western blot. We treated HEK-293T-RGS2-PL cells overnight (16–18 hours) with 100 μM compound and used 10 μM MG-132 as a positive control.
As a further validation of the action of compound 10, we assessed whether the ability to increase RGS2 protein levels was dependent on FBXO44 using the PathHunter ProLabel assay. HEK-293T-RGS2-PL cells transfected with either nontargeting (NT) or FBXO44-targeting siRNA were treated overnight (16–18 hours) with vehicle or compound 10 (100 μM). […] Thus, compound 10 increases RGS2 protein levels through a mechanism that is dependent on FBXO44.

RGS2 = target: T1, RGS2 (Homo sapiens, UniProt P41220); assay: Cellular thermal shift assay (CETSA), RGS2-HA; assay type: binding; conditions: 100 μM overnight (16–18 hours); gradient 40–60 °C; vs DMSO
T1 construct: Because both full-length RGS2 and FBXO44 are extremely difficult to express as recombinant proteins, we opted for a cell-based method; expressed in transfected cells; host or cells: HEK-293T, transient transfection
T1 sequence (P41220 1-211): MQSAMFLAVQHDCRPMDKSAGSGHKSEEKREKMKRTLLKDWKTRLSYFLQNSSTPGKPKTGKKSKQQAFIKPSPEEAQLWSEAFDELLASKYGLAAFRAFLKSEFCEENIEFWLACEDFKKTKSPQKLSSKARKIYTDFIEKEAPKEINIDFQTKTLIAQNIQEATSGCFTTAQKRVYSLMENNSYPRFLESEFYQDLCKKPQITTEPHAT
Protocol: The cells in 100 mm dishes were harvested by trypsination in reduced serum media and transferred to 15 mL conical tubes. The cells were centrifuged at 300 × g for 3 minutes. Media was removed, and the cell pellet was washed with 10 mL of PBS. The cells were then resuspended in 500 μL of PBS and aliquoted into polymerase chain reaction (PCR) tubes. The cells were then heated in a PCR gradient (40–60 °C) for 3 minutes and then transferred to a 25 °C PCR block for 3 minutes. Following this, cells were immediately flash-frozen using liquid nitrogen. The cells were freeze-thawed 3 times to lyse the cells and then spun down at 20,000 × g for 20 minutes. The supernatant was then added to sample buffer and heated for 5 minutes at 95 °C before SDS-PAGE and western blot analysis.
We next assessed whether the action of compound 10 to inhibit the RGS2-FBXO44 interaction is through direct binding to either protein. […] The cells were lysed and analyzed by western blot to determine melting temperatures (Tm). […] We also assessed the effect of compound 10 on the Tm for RGS4, which is closely related to RGS2 and also subject to proteasomal degradation, however, independent of FBXO44 ([Lee et al, 2005]; [Sjögren et al, 2015]).

Increase in the Tm for RGS2 (RGS2): 2.4 °C
Compound: CCC1CCCCN1S(=O)(=O)c1cc(Br)ccc1OC (stereo not shown) [Compound 10]
RGS2 protein levels (PathHunter ProLabel) (RGS2 protein levels): significantly increased RGS2 protein levels | RGS2 protein levels (PathHunter ProLabel) (RGS2 protein levels; listed as compound 10): significantly increased | Ability to increase RGS2 protein levels after siRNA-mediated FBXO44 knockdown (PathHunter ProLabel) (RGS2 protein levels; 100 μM overnight, FBXO44-targeting vs nontargeting siRNA): diminished ability
